Experiments:
Format in all cases: in vivo
[1] = tested on: Borreria verticillata; test: Greenhouse post-emergence herbicidal activity on Borreria verticillata; conditions: L-glufosinate ammonium 150 g a.i./ha
Method: (§1) The expected efficacy of a combination of L-glufosinate ammonium and the other herbicides was calculated using the well-established Colby method. Any difference between the observed and “expected” efficacy could be attributed to synergy between the two compounds.
(§2) In the Colby method, the expected (or predicted) response of a combination of herbicides is calculated by taking the product of the observed response for each individual component of the combination when applied alone, divided by 100, and subtracting this value from the sum of the observed response for each component when applied alone. An unexpected enhancement in efficacy of the combination is then determined by comparing the observed response of the combination to the expected (or predicted) response as calculated from the observed response of each individual component alone. If the observed response of the combination is greater than the expected (or predicted) response, or stated conversely, if the difference between the observed and expected response is greater than zero, then the combination is said to be synergistic or unexpectedly effective (Colby, S. R., Weeds, 1967 (15), p. 20-22). The Colby method requires only a single dose of each herbicide applied alone and the mixture of both doses. The formula used to calculate the expected efficacy (EE) which was compared with the observed efficacy (OE) to determine the efficacy of the present disclosure is explained hereinbelow:
(§3) Methodology: Greenhouse trials were conducted to evaluate the efficacy of the combination of L-glufosinate ammonium and triketone herbicides—mesotrione and tembotrione—on weeds Amaranthus viridis, Borreria verticillata, Brachiaria decumbens and Eleusine indica.
(§4) The soil used was sandy clay loam—sand: 68.0%; silt: 8.0%; clay: 24.0%.
(§5) All treatments were in 4 replications per treatment with a spray volume of 150 L/ha.
The percentage efficacy was calculated at 28 and 35 days after application (DAA). The target weed was Borreria verticillata, and the concentration of the herbicide and the results are recorded in Table 2.
The percentage efficacy was calculated at 3 and 7 days of application (DAA). The target weed was Borreria verticillata, and the concentration of the herbicide and the results are recorded in Table 6.

[2] = tested on: Brachiaria decumbens; test: Greenhouse post-emergence herbicidal activity on Brachiaria decumbens; conditions: 3 DAA, L-glufosinate ammonium 150 g a.i./ha
Method: as §1, §2, §3, §4, §5
The percentage efficacy was calculated at 14 days after application (DAA). The target weed was Brachiaria decumbens, and the concentration of the herbicide and the results are recorded in Table 1.
The percentage efficacy was calculated at 3 days of application (DAA). The target weed was Brachiaria decumbens and the concentration of the herbicide and the results are recorded in Table 7.

[3] = tested on: Amaranthus viridis; test: Greenhouse post-emergence herbicidal activity on Amaranthus viridis; conditions: L-glufosinate ammonium 150 g a.i./ha
Method: as §1, §2, §3, §4, §5
The percentage efficacy was calculated at 3 and 7 days after application (DAA). The target weed was Amaranthus viridis, and the concentration of the herbicide and the results are recorded in Table 4.
The percentage efficacy was calculated at 3 and 7 days of application (DAA). The target weed was Amaranthus viridis, and the concentration of the herbicide and the results are recorded Table 5.

[4] = tested on: Eleusine indica; test: Greenhouse post-emergence herbicidal activity on Eleusine indica; conditions: L-glufosinate ammonium 150 g a.i./ha
Method: as §1, §2, §3, §4, §5
The percentage efficacy was calculated at 14 days after application (DAA). The target weed was Eleusine indica, and the concentration of the herbicide and the results are recorded in Table 3.
The percentage efficacy was calculated at 3, 7, 21, 28, 35 days of application (DAA). The target weed was Eleusine indica, and the concentration of the herbicide and the results are recorded in Table 8.

[5] = 3 DAA, tembotrione 53 g a.i./ha, Table 6
[6] = 7 DAA, tembotrione 53 g a.i./ha, Table 6
[7] = 28 DAA, mesotrione 100 g a.i./ha, Table 2
[8] = 35 DAA, mesotrione 100 g a.i./ha, Table 2
[9] = mesotrione 100 g a.i./ha, Table 1
[10] = tembotrione 53 g a.i./ha, Table 7
[11] = 3 DAA, mesotrione 100 g a.i./ha, Table 4
[12] = 3 DAA, tembotrione 53 g a.i./ha, Table 5
[13] = 7 DAA, mesotrione 100 g a.i./ha, Table 4
[14] = 7 DAA, tembotrione 53 g a.i./ha, Table 5
[15] = 3 DAA, tembotrione 53 g a.i./ha, Table 8
[16] = 7 DAA, tembotrione 53 g a.i./ha, Table 8
[17] = 14 DAA, mesotrione 100 g a.i./ha, Table 3
[18] = 21 DAA, tembotrione 53 g a.i./ha, Table 8
[19] = 28 DAA, tembotrione 53 g a.i./ha, Table 8
[20] = 35 DAA, tembotrione 53 g a.i./ha, Table 8

Compound | % Control [1, 5] | % Control [1, 6] | % Control [1, 7] | % Control [1, 8] | % Control [2, 9] | % Control [2, 10] | % Control [3, 11] | % Control [3, 12] | % Control [3, 13] | % Control [3, 14] | % Control [4, 15] | % Control [4, 16] | % Control [4, 17] | % Control [4, 18] | % Control [4, 19] | % Control [4, 20]
CP(=O)(O)CC[C@H](N)C(=O)O.N [L-glufosinate ammonium, ammonium (2S)-2-amino-4-(methylphosphinato) butyric acid] | 55% | 80% | 90% | 85% | 40% | 40% | 40% | 50% | 80% | 80% | 40% | 50% | 30% | 50% | 30% | 40%
CS(=O)(=O)c1ccc(C(=O)C2C(=O)CCCC2=O)c([N+](=O)[O-])c1 [Mesotrione, mesotrione] |  |  | 75% | 75% | 10% |  | 10% |  | 30% |  |  |  | 20% |  |  | 
CS(=O)(=O)c1ccc(C(=O)C2C(=O)CCCC2=O)c(Cl)c1COCC(F)(F)F [Tembotrione, tembotrione] | 10% | 30% |  |  |  | 8% |  | 10% |  | 30% | 5% | 15% |  | 28% | 35% | 20%

Reference: patent publication US20260223854A1, “AN HERBICIDAL COMBINATION, COMPOSITION AND METHOD OF CONTROLLING WEEDS USING THE SAME” (priority 2023, published 2026)
